Reference: US8258159B2, “Inhibitors of the α2β1/GPIa-IIa integrin” (The Trustees Of The University Of Pennsylvania, priority 2005, dated 2012)
Like-named read-outs stand apart in the source and are kept apart here. *1 amine or outer side, *2 acyl side, *3 side chain or, on linkers, in order; H or OH if unused. Where a SMILES comes first, the peptide text is derived from it. Side-chain parts run from the residue outwards. [ ]: non-standard residue; d: D form. The star is where a group is joined. Tos = Cc1ccc(S(=O)(=O)*)cc1; Dap = NC[C@H](N)C(=O)O; CO = O=C([*:1])[*:2]; NHBn = c1ccc(CN*)cc1

How the values were obtained:
Format in all cases: cell-based
[1] = target: T1, α2β1 integrin (Homo sapiens, UniProt P05556+P17301); assay: Platelet adhesion assay (human platelet adhesion to type I collagen)
T1 construct: endogenous in cells; host or cells: gel-filtered human platelets of a single donor
Protocol: The inhibitory strength of the compounds of the present disclosure was analyzed as against platelet adhesion to type I collagen. Ninety-six well flat bottom microtiter plates (Immulon 2, Dynatech Laboratories, Chantilly, Va.) were coated with collagen, purified human fibrinogen, or bovine serum albumin, each dissolved in 50 mM NaHCO3 buffer, pH 8.0, containing 150 mM NaCl as previously described. See Bennett J S, Chan C, Vilaire G, Mousa S A, DeGrado W F. Agonist-Activated αvβ3 on Platelets and Lymphocytes Binds to the Matrix Protein Osteopontin. J Biol Chem. 272, 8137-814) (1997). Unoccupied protein binding sites on the wells were blocked with 5 mg/ml bovine serum albumin dissolved in the same buffer. Human platelets were isolated from blood anticoagulated with 0.1 volume 3.8% sodium citrate by gel-filtration using a 4 mM HEPES buffer, pH 7.4, containing 135 mM NaCl, 2.7 mM KCl, 5.6 mM glucose, 3.3 mM NaH2PO4, 0.35 mg/ml bovine serum albumin and various concentrations of CaCl2 or MgCl2 according to the experiment. One hundred μl aliquots of the gel-filtered platelet suspension containing 1-2×10^8 platelets were added to the protein-coated wells in the absence or presence of a platelet agonist. Following an incubation for 30 min at 37° C. without agitation, the plates were washed 4 times with the Tris-buffered NaCl, containing 2 mM MgCl2, pH 7.4, and the number of adherent platelets measured using the colorimetric assay reported by Bellavite P, Andrioli G, Guzzo P, et al. A colorimetric method for the measurement of platelet adhesion in microtiter plates. Anal Biochem. 216, 444-450 (1994). Briefly, 150 μl of a 0.1 M citrate buffer, pH 5.4, containing 5 mM p-nitrophenyl phosphate and 0.1% Triton X-100 was added to the wells after washing. After an incubation for 60 min at room temperature in the absence of ambient light, color was developed by the addition of 100 μl of 2N NaOH and, using EL800 Universal Microplate Reader (Bio-Tek Instruments, Inc., Winooski, Vt.), read in microtiter plate reader at 405 nm.
The potencies of the compounds of the present disclosure were determined by testing the ability of a range of concentrations of each compound to inhibit human platelet adhesion to soluble collagen under static conditions. Owing to the fact that soluble collagen is a specific ligand for α2β1 integrin, this is an accepted method of assessing α2β1 inhibition on platelets.
IC50 values were determined by using the platelets of a single donor. In cases where multiple assays were performed, the reported results reflect the average IC50 value derived from the separate assays.

[2] = target: T2, α1β1 (Homo sapiens, UniProt P05556+P56199); assay: Cell adhesion assay to assess specificity: α1-transfected K562 cells on collagen IV; conditions: read-out: % inhibition at 3 μM, α1β1
T2 construct: Marcinkiewicz (Temple University, Philadelphia, Pa.); host or cells: K562
Protocol: (§1) The ligands (3 μg/ml of collagen IV for […] or 3 μg/ml of collagen I for α2β1) for the test designed to assess the specificity of representative embodiments of the instant compounds for the α2β1 integrin were immobilized on 96-well flat microtiter plates (100 μl for each well) in PBS buffer solution overnight at 4° C. In the case of VCAM (3 μg/ml, for α4β1) and fibronectin (10 μg/ml, for α5β1), 20 mM acetic acid was used instead of PBS buffer solution. As those skilled in the art will recognize, VCAM is a known endothelial ligand for α4β1/VLA-4, and fibronectin is a known ligand for […]. In the case of α1β1 and α2β1, blocking was performed with 1% BSA in HBSS buffer solution containing Mg^2+ (but without Ca^2+) for 1 hour. In the case of α4β1 and α5β1, 1% BSA in HyQ HBSS buffer solution containing Ca^2+ and Mg^2+ was used. […] After centrifugation and washing with buffer solution containing 1% BSA, cells were re-suspended in same buffer solution (1×10^6 cells/ml) and incubated in the presence of a different concentration of inhibitors at room temperature for 15 minutes. Cells were added to the wells (100 μl/well) and incubated at 37° C. for 30 minutes. Unbound cells were washed out and bound cells were lysed by the addition of 0.5% Triton X-100.
(§2) The K562 cells expressing α5β1 integrin, Jurkat cells expressing α4β1, and K562 cells transfected with α1 and α2 integrins were provided by Dr. C. Marcinkiewicz (Temple University, Philadelphia, Pa.).
(§3) Plates were read using a Cytofluor 2350 fluorescence plate reader (Millipore, Bedford, Mass.) with a 485 nm (excitation) and 530 nm (emission).

[3] = target: T3, α2β1 (Homo sapiens, UniProt P05556+P17301); assay: Cell adhesion assay to assess specificity: α2-transfected K562 cells on collagen I
T3 construct: Marcinkiewicz (Temple University, Philadelphia, Pa.); host or cells: K562
Protocol: as §1, §2, §3

[4] = target: T4, α4β1 (Homo sapiens, UniProt P05556+P13612); assay: Cell adhesion assay to assess specificity: Jurkat cells on VCAM
T4 construct: Jurkat cells expressing α4β1; Marcinkiewicz (Temple University, Philadelphia, Pa.); host or cells: Jurkat
Protocol: as §1, §2, §3

[5] = human platelet adhesion to type I (soluble, monomeric) collagen, static conditions, single donor, read-out: IC50

T1 sequence (P17301 30-1181): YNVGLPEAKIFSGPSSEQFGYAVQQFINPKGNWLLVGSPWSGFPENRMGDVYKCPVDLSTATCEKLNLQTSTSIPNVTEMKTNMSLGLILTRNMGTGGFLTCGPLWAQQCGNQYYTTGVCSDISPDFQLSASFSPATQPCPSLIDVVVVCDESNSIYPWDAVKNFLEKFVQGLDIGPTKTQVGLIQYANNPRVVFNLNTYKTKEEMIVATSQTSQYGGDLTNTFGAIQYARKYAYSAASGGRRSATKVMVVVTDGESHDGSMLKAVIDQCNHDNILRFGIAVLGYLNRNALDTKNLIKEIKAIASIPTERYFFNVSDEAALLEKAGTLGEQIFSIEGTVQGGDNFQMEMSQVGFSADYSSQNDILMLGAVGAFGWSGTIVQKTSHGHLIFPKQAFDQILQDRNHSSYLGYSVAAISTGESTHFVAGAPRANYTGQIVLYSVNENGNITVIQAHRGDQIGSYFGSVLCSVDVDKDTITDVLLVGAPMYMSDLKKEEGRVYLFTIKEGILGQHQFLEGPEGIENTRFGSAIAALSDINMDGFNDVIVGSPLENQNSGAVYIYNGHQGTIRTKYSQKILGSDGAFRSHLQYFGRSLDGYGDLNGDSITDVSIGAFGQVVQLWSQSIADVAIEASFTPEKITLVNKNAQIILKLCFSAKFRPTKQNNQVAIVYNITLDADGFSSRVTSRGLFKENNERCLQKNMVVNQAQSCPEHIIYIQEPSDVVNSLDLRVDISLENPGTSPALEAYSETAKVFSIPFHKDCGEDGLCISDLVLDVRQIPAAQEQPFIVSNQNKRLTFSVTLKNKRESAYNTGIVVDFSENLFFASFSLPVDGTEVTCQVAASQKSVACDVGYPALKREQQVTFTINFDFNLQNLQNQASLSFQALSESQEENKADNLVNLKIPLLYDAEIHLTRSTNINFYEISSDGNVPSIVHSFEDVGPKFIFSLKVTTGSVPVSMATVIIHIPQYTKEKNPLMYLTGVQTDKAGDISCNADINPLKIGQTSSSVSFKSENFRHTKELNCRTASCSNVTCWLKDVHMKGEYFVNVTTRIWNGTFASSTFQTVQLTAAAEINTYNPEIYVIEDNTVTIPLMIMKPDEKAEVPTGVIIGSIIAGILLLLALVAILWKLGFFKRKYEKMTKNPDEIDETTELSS
T1 sequence (P05556 21-798): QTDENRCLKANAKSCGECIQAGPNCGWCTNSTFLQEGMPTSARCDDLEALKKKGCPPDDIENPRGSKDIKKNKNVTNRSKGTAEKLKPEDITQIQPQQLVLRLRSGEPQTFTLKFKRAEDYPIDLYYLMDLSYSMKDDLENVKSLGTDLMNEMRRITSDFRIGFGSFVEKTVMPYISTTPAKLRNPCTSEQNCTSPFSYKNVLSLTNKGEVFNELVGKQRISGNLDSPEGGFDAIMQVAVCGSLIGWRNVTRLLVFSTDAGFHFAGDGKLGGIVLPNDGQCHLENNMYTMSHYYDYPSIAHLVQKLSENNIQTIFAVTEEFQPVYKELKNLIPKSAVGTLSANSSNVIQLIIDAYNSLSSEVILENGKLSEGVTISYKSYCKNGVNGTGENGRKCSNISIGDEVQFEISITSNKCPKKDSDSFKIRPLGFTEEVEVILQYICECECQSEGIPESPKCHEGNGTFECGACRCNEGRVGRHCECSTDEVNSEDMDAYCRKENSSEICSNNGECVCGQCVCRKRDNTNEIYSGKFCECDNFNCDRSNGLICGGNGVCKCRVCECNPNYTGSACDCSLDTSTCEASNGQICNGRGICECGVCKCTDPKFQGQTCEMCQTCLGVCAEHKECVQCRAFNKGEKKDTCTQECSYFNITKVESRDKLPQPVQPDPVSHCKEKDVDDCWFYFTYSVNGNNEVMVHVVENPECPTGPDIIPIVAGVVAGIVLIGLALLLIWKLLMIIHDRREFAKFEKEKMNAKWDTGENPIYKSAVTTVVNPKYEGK
T3 sequence (P17301 30-1181): as the sequence (P17301 30-1181) above
T3 sequence (P05556 21-798): as the sequence (P05556 21-798) above
T2 sequence (P56199 29-1179): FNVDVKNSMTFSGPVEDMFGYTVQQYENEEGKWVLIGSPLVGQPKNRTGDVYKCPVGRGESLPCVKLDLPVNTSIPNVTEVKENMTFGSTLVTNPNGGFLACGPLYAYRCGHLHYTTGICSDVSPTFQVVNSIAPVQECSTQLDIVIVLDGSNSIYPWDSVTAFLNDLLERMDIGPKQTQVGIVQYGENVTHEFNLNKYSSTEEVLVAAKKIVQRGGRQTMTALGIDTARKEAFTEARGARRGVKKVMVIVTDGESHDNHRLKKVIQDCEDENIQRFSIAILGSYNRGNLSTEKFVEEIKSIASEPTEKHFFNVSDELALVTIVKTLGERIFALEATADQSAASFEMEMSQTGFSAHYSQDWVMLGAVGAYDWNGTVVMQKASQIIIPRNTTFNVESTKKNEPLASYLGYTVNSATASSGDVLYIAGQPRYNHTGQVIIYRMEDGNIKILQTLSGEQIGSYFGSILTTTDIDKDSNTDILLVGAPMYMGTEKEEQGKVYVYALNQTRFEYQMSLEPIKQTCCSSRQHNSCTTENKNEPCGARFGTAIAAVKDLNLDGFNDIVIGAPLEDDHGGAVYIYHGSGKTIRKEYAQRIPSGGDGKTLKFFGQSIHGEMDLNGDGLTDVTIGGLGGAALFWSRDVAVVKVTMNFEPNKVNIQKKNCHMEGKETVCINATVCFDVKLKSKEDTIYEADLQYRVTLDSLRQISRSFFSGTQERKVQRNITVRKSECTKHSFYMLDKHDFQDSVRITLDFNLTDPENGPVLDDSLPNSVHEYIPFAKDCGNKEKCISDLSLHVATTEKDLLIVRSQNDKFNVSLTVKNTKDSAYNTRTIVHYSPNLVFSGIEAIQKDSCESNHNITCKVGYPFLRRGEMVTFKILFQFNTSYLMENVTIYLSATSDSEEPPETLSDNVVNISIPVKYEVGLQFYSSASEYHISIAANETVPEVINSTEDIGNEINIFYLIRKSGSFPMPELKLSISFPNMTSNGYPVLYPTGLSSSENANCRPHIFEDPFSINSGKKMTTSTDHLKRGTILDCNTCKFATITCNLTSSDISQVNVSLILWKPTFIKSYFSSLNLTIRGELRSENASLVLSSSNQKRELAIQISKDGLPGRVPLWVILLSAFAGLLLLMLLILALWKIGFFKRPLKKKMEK
T2 sequence (P05556 21-798): as the sequence (P05556 21-798) above
T4 sequence (P13612 34-1032): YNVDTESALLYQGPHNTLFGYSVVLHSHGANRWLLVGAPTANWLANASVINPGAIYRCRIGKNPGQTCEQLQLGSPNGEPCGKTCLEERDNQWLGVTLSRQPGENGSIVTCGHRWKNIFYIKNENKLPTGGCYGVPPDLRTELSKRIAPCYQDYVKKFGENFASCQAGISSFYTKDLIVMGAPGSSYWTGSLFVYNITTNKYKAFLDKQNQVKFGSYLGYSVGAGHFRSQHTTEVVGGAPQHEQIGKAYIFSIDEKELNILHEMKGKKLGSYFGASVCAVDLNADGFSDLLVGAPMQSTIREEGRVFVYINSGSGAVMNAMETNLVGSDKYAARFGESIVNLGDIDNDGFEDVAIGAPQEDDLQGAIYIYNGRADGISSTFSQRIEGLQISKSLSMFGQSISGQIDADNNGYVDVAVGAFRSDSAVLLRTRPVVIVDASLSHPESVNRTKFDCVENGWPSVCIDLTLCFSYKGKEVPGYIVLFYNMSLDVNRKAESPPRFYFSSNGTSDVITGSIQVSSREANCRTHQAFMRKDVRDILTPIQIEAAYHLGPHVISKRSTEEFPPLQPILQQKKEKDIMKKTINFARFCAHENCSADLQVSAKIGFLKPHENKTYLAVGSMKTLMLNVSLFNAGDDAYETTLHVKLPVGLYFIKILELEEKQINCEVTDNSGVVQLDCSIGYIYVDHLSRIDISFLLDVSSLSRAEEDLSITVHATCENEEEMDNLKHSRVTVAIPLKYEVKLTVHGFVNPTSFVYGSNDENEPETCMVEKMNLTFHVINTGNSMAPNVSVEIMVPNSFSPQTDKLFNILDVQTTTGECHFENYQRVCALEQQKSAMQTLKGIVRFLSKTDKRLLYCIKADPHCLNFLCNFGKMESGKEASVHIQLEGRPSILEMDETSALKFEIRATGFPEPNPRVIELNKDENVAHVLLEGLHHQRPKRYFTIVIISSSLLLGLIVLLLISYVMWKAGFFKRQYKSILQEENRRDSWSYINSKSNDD
T4 sequence (P05556 21-798): as the sequence (P05556 21-798) above

| Structure (SMILES) | IC50 [1, 5] | also measured |
| --- | --- | --- |
| Cc1ccc(S(=O)(=O)N2CCC[C@H]2C(=O)N[C@@H](CNC(=O)NCc2ccccc2)C(=O)O)cc1 [Compound 27, 3-(3-Benzyl-ureido)-2-{[1-(toluene-4-sulfonyl)-pyrrolidine-2-carbonyl]-amino}-propionic acid] (Tos-Pro-[Dap]([CO-NHBn])-OH) | 36 nM |  |
| O=C(NCc1ccccc1)NC[C@H](NC(=O)[C@@H]1CCCN1S(=O)(=O)c1cccc2ccccc12)C(=O)O [Compound 28] | 1940 nM |  |
| O=C(NCc1ccccc1)NC[C@H](NC(=O)[C@@H]1CCCN1S(=O)(=O)c1ccc2ccccc2c1)C(=O)O [Compound 29] | 900 nM | inhibition at 3 µM [2]: 30%; IC50 [3]: 177 nM; IC50 [4]: 4330 nM |
| Nc1ccc(CNC(=O)NC[C@H](NC(=O)[C@@H]2CCCN2S(=O)(=O)c2ccccc2)C(=O)O)cc1 [Compound 30, 3-[3-(4-Amino-benzyl)-ureido]-2-[(1-benzenesulfonyl-pyrrolidine-2-carbonyl)-amino]-propionic acid] | 23 nM | IC50 ([1]; platelets on collagen I, read-out: IC50 (nM), α2β1, Platelet, Collagen I): 23 nM; inhibition at 3 µM [2]: 22%; IC50 [3]: 102 nM; IC50 [4]: 1970 nM |
| O=C(Cc1ccccc1)Nc1ccc(S(=O)(=O)N2CCC[C@H]2C(=O)N[C@@H](CNC(=O)NCc2ccccc2)C(=O)O)cc1 [Compound 32, 3-(3-Benzyl-ureido)-2-{[1-(4-phenylacetylamino-benzenesulfonyl)-pyrrolidine-2-carbonyl]-amino}-propionic acid] | 236 nM |  |
| O=C(NCc1ccccc1)NC[C@H](NC(=O)[C@@H]1CCCN1S(=O)(=O)c1ccc(NC(=O)Nc2ccccc2)cc1)C(=O)O [Compound 33, 3-(3-Benzyl-ureido)-2-({1-[4-(3-phenyl-ureido)-benzenesulfonyl]-pyrrolidine-2-carbonyl}-amino)-propionic acid] | 151 nM |  |
| O=C(NCc1ccccc1)NC[C@H](NC(=O)[C@@H]1CCCN1S(=O)(=O)c1ccc2ccccc2c1)C(=O)O [Compound 34, 3-(3-Benzyl-ureido)-2-{[1-(naphthalene-2-sulfonyl)-pyrrolidine-2-carbonyl]-amino}-propionic acid] | 50 nM |  |
| O=C(NCc1ccccc1Cl)NC[C@H](NC(=O)[C@@H]1CCCN1S(=O)(=O)c1ccccc1)C(=O)O [Compound 35, 2-[(1-Benzenesulfonyl-pyrrolidine-2-carbonyl)-amino]-3-[3-(2-chloro-benzyl)-ureido]-propionic acid] | 107 nM |  |
| O=C(NC[C@H](NC(=O)[C@@H]1CCCN1S(=O)(=O)c1ccccc1)C(=O)O)Nc1ccccc1 [Compound 36, 2-[(1-Benzenesulfonyl-pyrrolidine-2-carbonyl)-amino]-3-(3-phenyl-ureido)-propionic acid] | 296 nM |  |
| O=C(CCc1ccccc1)NC[C@H](NC(=O)[C@@H]1CCCN1S(=O)(=O)c1ccccc1)C(=O)O [Compound 37, 2-[(1-Benzenesulfonyl-pyrrolidine-2-carbonyl)-amino]-3-(3-phenyl-propionylamino)-propionic acid] | 367 nM |  |
| O=C(NC[C@H](NC(=O)[C@@H]1CCCN1S(=O)(=O)c1ccccc1)C(=O)O)c1ccccc1 [Compound 38, 2-[(1-Benzenesulfonyl-pyrrolidine-2-carbonyl)-amino]-3-benzoylamino-propionic acid] | 660 nM |  |
| O=C(NC[C@H](NC(=O)[C@@H]1CCCN1S(=O)(=O)c1ccccc1)C(=O)O)OCc1ccccc1 [Compound 39, 2-[(1-Benzenesulfonyl-pyrrolidine-2-carbonyl)-amino]-3-benzyloxycarbonylamino-propionic acid] | 185 nM |  |
| COc1ccccc1CNC(=O)NC[C@H](NC(=O)[C@@H]1CCCN1S(=O)(=O)c1ccccc1)C(=O)O [Compound 40, 2-[(1-Benzenesulfonyl-pyrrolidine-2-carbonyl)-amino]-3-[3-(2-methoxy-benzyl)-ureido]-propionic acid] | 467 nM |  |
| COc1cccc(CNC(=O)NC[C@H](NC(=O)[C@@H]2CCCN2S(=O)(=O)c2ccccc2)C(=O)O)c1 [Compound 41, 2-[(1-Benzenesulfonyl-pyrrolidine-2-carbonyl)-amino]-3-[3-(3-methoxy-benzyl)-ureido]-propionic acid] | 160 nM |  |
| CCCNC(=O)NC[C@H](NC(=O)[C@@H]1CCCN1S(=O)(=O)c1ccccc1)C(=O)O [Compound 42, 2-[(1-Benzenesulfonyl-pyrrolidine-2-carbonyl)-amino]-3-{3-propyl-ureido)-propionic acid] | 367 nM |  |
| O=C(NCc1ccccc1)NC[C@H](NC(=O)[C@@H]1CCCN1S(=O)(=O)c1cc(F)cc(F)c1)C(=O)O [Compound 43, 3-(3-Benzyl-ureido)-2-{[1-(3,5-difluoro-benzenesulfonyl)-pyrrolidine-2-carbonyl]-amino}-propionic acid] | 35 nM |  |
| CS(=O)(=O)c1ccc(S(=O)(=O)N2CCC[C@H]2C(=O)N[C@@H](CNC(=O)NCc2ccccc2)C(=O)O)cc1 [Compound 44, 3-(3-Benzyl-ureido)-2-{[1-(4-methanesulfonyl-benzenesulfonyl)-pyrrolidine-2-carbonyl]-amino}-propionic acid] | 70 nM |  |
| CC(C)(C)NC(=O)NC[C@H](NC(=O)[C@@H]1CCCN1S(=O)(=O)c1ccccc1)C(=O)O [Compound 45, 2-[(1-Benzenesulfonyl-pyrrolidine-2-carbonyl)-amino]-3-(3-tert-butyl-ureido)-propionic acid] | 185 nM |  |
| O=C(NCc1ccccc1)NC[C@H](NC(=O)[C@@H]1C[C@@H](OCc2ccccc2)CN1S(=O)(=O)c1ccccc1)C(=O)O [Compound 46, 2-[(1-Benzenesulfonyl-4-benzyloxy-pyrrolidine-2-carbonyl)-amino]-3-(3-benzyl-ureido)-propionic acid] | 240 nM |  |
| O=C(NCc1ccccc1)NC[C@H](NC(=O)[C@@H]1C[C@@H](O)CN1S(=O)(=O)c1ccccc1)C(=O)O [Compound 47, 2-[(1-Benzenesulfonyl-4-hydroxy-pyrrolidine-2-carbonyl)-amino]-3-(3-benzyl-ureido)-propionic acid] | 34 nM |  |
| O=C(NCc1ccccc1)NC[C@H](NC(=O)[C@@H]1CCCN1S(=O)(=O)c1cc(C(F)(F)F)cc(C(F)(F)F)c1)C(=O)O [Compound 49, 3-(3-Benzyl-ureido)-2-{[1-(3,5-bis-trifluoromethyl-benzenesulfonyl)-pyrrolidine-2-carbonyl]-amino}-propionic acid] | 39 nM |  |
| O=C(NCc1ccccc1)NC[C@H](NC(=O)C1CCCCN1S(=O)(=O)c1ccccc1)C(=O)O (some centres unmarked) [Compound 51, 2-[(1-Benzenesulfonyl-piperidine-2-carbonyl)-amino]-3-(3-benzyl-ureido)-propionic acid] | 56 nM |  |
